Broadly, the IC50 is the concentration needed to halve the response being measured.

This passage reports IC50 results from patent US9102701B2, “17-hydroxy-17-pentafluoroethyl-estra-4,9(10)-diene-11-ethynylphenyl derivatives, methods for the production thereof and use thereof for treating diseases” (Bayer Intellectual Property GmbH, priority 2009, dated 2015).

Assay [1] deals with T1, human progesterone receptor A (Homo sapiens, UniProt P06401).
T1 construct: expressed in transfected cells; host or cells: SK-N-MC human neuroblastoma cells, stably transfected with pRChPR-A-neo and pMMTV-LUC
T1 sequence (P06401 1-769 isoform P06401-2): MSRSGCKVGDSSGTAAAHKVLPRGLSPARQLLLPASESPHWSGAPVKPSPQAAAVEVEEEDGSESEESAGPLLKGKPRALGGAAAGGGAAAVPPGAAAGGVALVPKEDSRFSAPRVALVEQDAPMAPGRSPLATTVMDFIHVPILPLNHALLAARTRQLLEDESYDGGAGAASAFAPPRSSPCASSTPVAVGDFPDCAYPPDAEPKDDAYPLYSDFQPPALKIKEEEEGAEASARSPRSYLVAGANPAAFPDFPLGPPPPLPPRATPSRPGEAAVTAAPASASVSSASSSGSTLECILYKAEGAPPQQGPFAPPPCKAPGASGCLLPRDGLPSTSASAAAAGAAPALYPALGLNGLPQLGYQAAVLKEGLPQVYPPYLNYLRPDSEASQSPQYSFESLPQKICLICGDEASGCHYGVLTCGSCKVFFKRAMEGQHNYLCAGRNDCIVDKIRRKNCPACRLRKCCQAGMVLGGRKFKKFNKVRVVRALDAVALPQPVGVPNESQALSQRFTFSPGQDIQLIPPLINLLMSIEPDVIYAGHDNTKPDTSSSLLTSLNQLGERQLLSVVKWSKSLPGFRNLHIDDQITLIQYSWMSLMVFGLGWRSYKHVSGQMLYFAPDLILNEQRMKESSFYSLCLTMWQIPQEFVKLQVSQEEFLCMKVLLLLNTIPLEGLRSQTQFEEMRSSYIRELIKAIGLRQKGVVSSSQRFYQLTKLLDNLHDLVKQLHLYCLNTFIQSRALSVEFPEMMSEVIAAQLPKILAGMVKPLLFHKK
The assay is described as follows: Progesterone receptor-antagonistic action in stably transfected SK-N-MC cells, PR-A, MMTV-LUC reporter. The format is cell-based. The method, then: (§1) Determination of Progesterone Receptor-Antagonistic Action in Stable Transfectants of Human Neuroblastoma Cells (SK-N-MC Cells) with the Human Progesterone a or Progesterone B Receptor and an MN-LUC Reporter Construct
(§2) SK-N-MC cells (human neuroblastoma cells) which have been stably transfected with plasmids expressing the human progesterone receptor B (pRChPR-B-neo) or the human progesterone receptor A (pRChPR-A-neo) and a reporter construct (pMMTV-LUC) were incubated for 24 hours either in the absence (negative control) or in the presence of ascending amounts of the particular test compound (0.01 nmol/l, 0.1 nmol/l, 1 nmol/l, 10 nmol/l, 100 nmol/l and […]), in order to determine the agonistic efficacy. As a positive control of the reporter gene induction, the cells were treated with the synthetic gestagen promegestone (0.01 nmol/l, 0.1 nmol/l, 1 nmol/l, 10 nmol/l, 100 nmol/l and […]). To determine the antagonistic activity, the cells were treated with 0.1 nmol/l promegestone and additionally with ascending amounts of the particular test compound (0.01 nmol/l, 0.1 nmol/l, 1 nmol/l, 10 nmol/l, 100 nmol/l and […]). The activity of the reporter gene LUC (LUC=luciferase) was determined in the cell lysates and measured as RLU (relative light units). All measurements are reported as % efficacy and as EC50 and IC50 concentrations.

For assay [2], the target named is T2, human progesterone receptor B (Homo sapiens, UniProt P06401).
T2 construct: expressed in transfected cells; host or cells: SK-N-MC human neuroblastoma cells, stably transfected with pRChPR-B-neo and pMMTV-LUC
T2 sequence (P06401 1-933): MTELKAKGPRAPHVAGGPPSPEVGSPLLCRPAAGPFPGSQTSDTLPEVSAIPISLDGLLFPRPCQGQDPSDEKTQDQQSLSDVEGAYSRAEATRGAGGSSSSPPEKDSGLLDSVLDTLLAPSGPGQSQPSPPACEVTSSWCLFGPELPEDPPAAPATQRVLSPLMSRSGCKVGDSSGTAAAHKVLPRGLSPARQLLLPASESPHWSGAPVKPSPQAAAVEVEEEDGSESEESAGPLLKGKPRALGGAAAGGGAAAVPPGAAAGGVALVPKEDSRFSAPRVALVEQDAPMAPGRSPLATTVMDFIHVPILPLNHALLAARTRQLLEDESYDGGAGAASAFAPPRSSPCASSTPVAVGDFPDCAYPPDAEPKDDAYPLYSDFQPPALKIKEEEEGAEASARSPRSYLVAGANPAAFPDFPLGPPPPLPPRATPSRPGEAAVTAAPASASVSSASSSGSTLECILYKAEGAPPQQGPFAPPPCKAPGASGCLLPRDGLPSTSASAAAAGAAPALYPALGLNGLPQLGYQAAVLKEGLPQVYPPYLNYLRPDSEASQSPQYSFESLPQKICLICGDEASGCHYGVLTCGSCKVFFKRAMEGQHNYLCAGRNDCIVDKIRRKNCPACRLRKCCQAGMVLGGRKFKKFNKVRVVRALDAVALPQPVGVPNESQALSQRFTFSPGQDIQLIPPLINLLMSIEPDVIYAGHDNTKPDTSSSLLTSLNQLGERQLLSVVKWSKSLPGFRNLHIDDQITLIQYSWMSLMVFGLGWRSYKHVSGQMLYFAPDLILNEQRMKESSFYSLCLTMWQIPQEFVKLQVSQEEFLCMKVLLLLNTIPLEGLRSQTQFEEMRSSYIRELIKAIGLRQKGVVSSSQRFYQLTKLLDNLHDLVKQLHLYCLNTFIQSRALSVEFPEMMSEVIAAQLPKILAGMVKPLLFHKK
Description: Progesterone receptor-antagonistic action in stably transfected SK-N-MC cells, PR-B, MMTV-LUC reporter. The format is cell-based. The method, then:
as §1, §2

Each structure is given as a SMILES string. Read-outs that look alike come from different tables or passages of the source.

On to `COC(=O)c1cccc(C=CC#Cc2ccc([C@H]3C[C@@]4(C)C(CC[C@@]4(O)C(F)(F)C(F)(F)F)C4CCC5=CC(=O)CCC5=C43)cc2)c1` (mixture of isomers) [Example 12, 3-{(E/Z)-4-[4-((8S,11R,13S,14S,17S)-17-hydroxy-13-methyl-3-oxo-17-pentafluoroethyl-2,3,6,7,8,11,12,13,14,15,16,17-dodecahydro-1H-cyclopenta[a]phenanthren-1′-yl)phenyl]but-1-en-3-ynyl}benzoic acid methyl ester], for which the IC50 in assay [1] (read-out: IC50 PR-A) is 1 nM; in assay [2] (read-out: IC50 PR-B) it was 2 nM.
With `CC(C)CO/N=C/C#Cc1ccc([C@H]2C[C@@]3(C)C(CC[C@@]3(O)C(F)(F)C(F)(F)F)C3CCC4=CC(=O)CCC4=C32)cc1` (mixture of isomers) [Example 26, (E/Z)-[4-((8S,11R,13S,14S,17S)-17-hydroxy-13-methyl-3-oxo-17-pentafluoroethyl-2,3,6,7,8,11,12,13,14,15,16,17-dodecahydro-1H-cyclopenta[a]phenanthren-1′-yl)phenyl]propynal O-isobutyl oxime], the 50% inhibitory concentration (IC50) in assay [1] (read-out: IC50 PR-A) and in assay [2] (read-out: IC50 PR-B) was 0.08 nM throughout.
On to `C[C@]12C[C@H](c3ccc(C#CC=NOCc4ccc(Cl)c(Cl)c4)cc3)C3=C4CCC(=O)C=C4CCC3C1CC[C@@]2(O)C(F)(F)C(F)(F)F` (mixture of isomers) [Example 27, (E/Z)-[4-((8S,11R,13S,14S,17S)-17-hydroxy-13-methyl-3-oxo-17-pentafluoroethyl-2,3,6,7,8,11,12,13,14,15,16,17-dodecahydro-1H-cyclopenta[a]phenanthren-1′-yl)phenyl]propynal O-(3,4-dichlorobenzyl) oxime], for which the IC50 in assay [1] (read-out: IC50 PR-A) stood at 0.97 nM; in assay [2] (read-out: IC50 PR-B) it was 2 nM.
With `COC(=O)C#Cc1ccc([C@H]2C[C@@]3(C)C(CC[C@@]3(O)C(F)(F)C(F)(F)F)C3CCC4=CC(=O)CCC4=C32)cc1` (stereo partly drawn) [Example 3, [4-((8S,11R,13S,14S,17S)-17-hydroxy-13-methyl-3-oxo-17-pentafluoroethyl-2,3,6,7,8,11,12,13,14,15,16,17-dodecahydro-1H-cyclopenta[a]phenanthren-1′-yl)phenyl]propynoic acid methyl ester], the IC50 in assay [1] amounted to 1.8 nM; in assay [2] it was 1.2 nM.
Take `CCOC(=O)/C=C/C#Cc1ccc([C@H]2C[C@@]3(C)C(CC[C@@]3(O)C(F)(F)C(F)(F)F)C3CCC4=CC(=O)CCC4=C32)cc1` (stereo partly drawn) [Example 6, (E)-5-[4-((8S,11R,13S,14S,17S)-17-hydroxy-13-methyl-3-oxo-17-pentafluoroethyl-2,3,6,7,8,11,12,13,14,15,16,17-dodecahydro-1H-cyclopenta[a]phenanthren-1′-yl)phenyl]pent-2-en-4-ynoic acid ethyl ester]: the IC50 in assay [1] (read-out: IC50 PR-A) was determined as 13 nM; in assay [2] (read-out: IC50 PR-B), 12 nM.
Turning to `CCOC(=O)C=CC=CC#Cc1ccc([C@H]2C[C@@]3(C)C(CC[C@@]3(O)C(F)(F)C(F)(F)F)C3CCC4=CC(=O)CCC4=C32)cc1` (stereo partly drawn) [Example 7, 7-(2E/Z,4E/Z)-[4-((8S,11R,13S,14S,17S)-17-hydroxy-13-methyl-3-oxo-17-pentafluoroethyl-2,3,6,7,8,11,12,13,14,15,16,17-dodecahydro-1H-cyclopenta[a]phenanthren-1′-yl)phenyl]hepta-2,4-dien-6-ynoic acid ethyl ester], the IC50 in assay [1] (read-out: IC50 PR-A) was 0.8 nM; in assay [2] (read-out: IC50 PR-B), 0.9 nM.
Consider `CC(C)(C)OC(=O)COCC#Cc1ccc([C@H]2C[C@@]3(C)[C@@H](CC[C@@]3(O)C(F)(F)C(F)(F)F)[C@@H]3CCC4=CC(=O)CCC4=C32)cc1` [Example 8, {3-[4-((8S,11R,13S,14S,17S)-17-hydroxy-13-methyl-3-oxo-17-pentafluoroethyl-2,3,6,7,8,11,12,13,14,15,16,17-dodecahydro-1H-cyclopenta[a]phenanthren-11-yl)phenyl]prop-2-ynyloxy}acetic acid tert-butyl ester], for which the IC50 in assay [1] (read-out: IC50 PR-A) stood at 0.32 nM; in assay [2] (read-out: IC50 PR-B), 0.41 nM.
For `COC(=O)COCC#Cc1ccc([C@H]2C[C@@]3(C)[C@@H](CC[C@@]3(O)C(F)(F)C(F)(F)F)[C@@H]3CCC4=CC(=O)CCC4=C32)cc1` [Example 9, {3-[4-((8S,11R,13S,14S,17S)-17-hydroxy-13-methyl-3-oxo-17-pentafluoroethyl-2,3,6,7,8,11,12,13,14,15,16,17-dodecahydro-1H-cyclopenta[a]phenanthren-11-yl)phenyl]prop-2-ynyloxy}acetic acid methyl ester], the IC50 in assay [1] (read-out: IC50 PR-A) turned out to be 8.1 nM; in assay [2] (read-out: IC50 PR-B), 10 nM.
With `C[C@]12C[C@H](c3ccc(C#CCOCC(=O)O)cc3)C3=C4CCC(=O)C=C4CCC3C1CC[C@@]2(O)C(F)(F)C(F)(F)F` (stereo partly drawn) [Example 10, {3-[4-((8S,11R,13S,14S,17S)-17-hydroxy-13-methyl-3-oxo-17-pentafluoroethyl-2,3,6,7,8,11,12,13,14,15,16,17-dodecahydro-1H-cyclopenta[a]phenanthren-1′-yl)phenyl]prop-2-ynyloxy}acetic acid], the values for the IC50 in assay [1] (read-out: IC50 PR-A) and in assay [2] (read-out: IC50 PR-B) were 9 nM and 10 nM, respectively.
Turning to `C[C@]12C[C@H](c3ccc(C#CCOCC#N)cc3)C3=C4CCC(=O)C=C4CCC3C1CC[C@@]2(O)C(F)(F)C(F)(F)F` (stereo partly drawn) [Example 14, {3-[4-((8S,11R,13S,14S,17S)-17-hydroxy-13-methyl-3-oxo-17-pentafluoroethyl-2,3,6,7,8,11,12,13,14,15,16,17-dodecahydro-1H-cyclopenta[a]phenanthren-1′-yl)phenyl]prop-2-ynyloxy}acetonitrile], the IC50 in assay [1] (read-out: IC50 PR-A) and in assay [2] (read-out: IC50 PR-B) was 0.1 nM in each case.
For `COC(=O)c1ccc(C#Cc2ccc([C@H]3C[C@@]4(C)[C@@H](CC[C@@]4(O)C(F)(F)C(F)(F)F)[C@@H]4CCC5=CC(=O)CCC5=C43)cc2)cc1` [Example 15, 4-[4-((8S,11R,13S,14S,17S)-17-hydroxy-13-methyl-3-oxo-17-pentafluoroethyl-2,3,6,7,8,11,12,13,14,15,16,17-dodecahydro-1H-cyclopenta[a]phenanthren-11-yl)phenylethynyl]benzoic acid methyl ester], the figures for the IC50 in assay [1] (read-out: IC50 PR-A) and in assay [2] (read-out: IC50 PR-B) were 0.7 nM and 1 nM, respectively.
The like results for `C[C@]12C[C@H](c3ccc(C#CCOCc4nnn[nH]4)cc3)C3=C4CCC(=O)C=C4CC[C@H]3[C@@H]1CC[C@@]2(O)C(F)(F)C(F)(F)F` [Example 18, (8S,11R,13S,14S,17S)-17-hydroxy-13-methyl-17-pentafluoroethyl-11-{4-[3-(1H-tetrazol-5-ylmethoxy)prop-1-yn-1-yl]phenyl}-1,2,6,7,8,11,12,13,14,15,16,17-dodecahydrocyclopenta[a]phenanthren-3-one] were, in that order, 8 nM and 5 nM.
